Values of other authors as cited in patent US11103891B2, “Pharmaceutical composition” (priority 2011, dated 2021).

Conditions: immediate release preparations of levodopa

## N[C@@H](Cc1ccc(O)c(O)c1)C(=O)O [levodopa]
  levodopa dose that reaches the brain: about 5%
